Source: PubChem BioAssay (NCI)
Where “and” joins values, the source holds several entries; their conditions need not be identical. Equal entries are not always repeated.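 Here, GI50 denotes the concentration required for 50% inhibition of growth. TGI: concentration producing complete growth inhibition.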

Tests used:
Assay in all cases: NCI anticancer screen, dose series, 384-well format
[1] = test system: NCI-H522 lung
[2] = test system: MCF7 breast
[3] = test system: BT-549 breast
[4] = test system: M14 melanoma
[5] = test system: HCT-116 colon
[6] = test system: SF-295 CNS
[7] = test system: MALME-3M melanoma
[8] = test system: NCI/ADR-RES ovarian
[9] = test system: MOLT-4 leukemia
[10] = test system: RXF 393 renal
[11] = test system: SNB-75 CNS
[12] = test system: HCT-15 colon
[13] = test system: LOX IMVI melanoma
[14] = test system: NCI-H322M lung
[15] = test system: DU-145 prostate
[16] = test system: EKVX NSCLC
[17] = test system: NCI-H226 lung
[18] = test system: MDA-MB-231 breast
[19] = test system: HL-60(TB) leukemia
[20] = test system: OVCAR-5 ovarian
[21] = test system: NCI-H23 lung
[22] = test system: HS 578T breast
[23] = test system: SK-MEL-5 melanoma
[24] = test system: OVCAR-8 ovarian
[25] = test system: HOP-92 NSCLC
[26] = test system: SK-OV-3 ovarian
[27] = test system: K-562 leukemia
[28] = test system: SW-620 colon
[29] = test system: SR leukemia
[30] = test system: CAKI-1 renal
[31] = test system: ACHN renal
[32] = test system: MDA-MB-468 breast
[33] = test system: TK-10 renal
[34] = test system: OVCAR-4 ovarian
[35] = test system: RPMI-8226 leukemia
[36] = test system: SK-MEL-28 melanoma
[37] = test system: KM12 colon
[38] = test system: COLO 205 colon

CCc1cc2c(cc1N1CCC(N3CCOCC3)CC1)C(C)(C)c1[nH]c3cc(C#N)ccc3c1C2=O
GI50 [1]: 2920 nM and 1150 nM
TGI [1]: 8.64 µM and 2.58 µM
TGI [2]: 8.58 µM and 2.05 µM
GI50 [3]: 4750 nM and 496 nM
TGI [3]: 9 µM and 1.62 µM
GI50 [4]: 5.43 µM and 0.726 µM
TGI [4]: 13.3 µM and 4.3 µM
GI50 [5]: 5.79 µM and 1.47 µM
TGI [5]: 11.5 µM and 3.08 µM
TGI [6]: 11.3 µM and 2.17 µM
GI50 [7]: 2110 nM and 839 nM
TGI [7]: 5.69 µM and 2.24 µM
GI50 [8]: 666 nM and 1540 nM
TGI [8]: 2.96 µM and 4.51 µM
GI50 [9]: 1920 nM and 302 nM
TGI [9]: 7.47 µM and 1.5 µM
GI50 [10]: 2450 nM and 547 nM
TGI [10]: 7.13 µM and 1.88 µM
TGI [11]: 10.6 µM and 1.07 µM
TGI [12]: 8.23 µM and 1.45 µM
GI50 [13]: 4670 nM and 1170 nM
TGI [13]: 9.04 µM and 2.67 µM
TGI [14]: 29.4 µM and 3.81 µM
GI50 [15]: 1630 nM and 992 nM
TGI [15]: 6.57 µM and 2.37 µM
GI50 [16]: 4.67 µM and 1.37 µM
TGI [16]: 11.4 µM and 2.98 µM
GI50 [17]: 3.1 µM
TGI [17]: 8.34 µM and 2.64 µM
GI50 [18]: 1110 nM and 1260 nM
TGI [18]: 2.73 µM and 3.32 µM
GI50 [19]: 6.14 µM and 0.686 µM
TGI [19]: 10.9 µM and 1.9 µM
GI50 [20]: 5.33 µM and 1.21 µM
GI50 [21]: 4.88 µM and 1.47 µM
TGI [21]: 13.1 µM and 10.9 µM
TGI [22]: 8.55 µM and 1.21 µM
TGI [23]: 8.31 µM and 1.6 µM
GI50 [24]: 4120 nM and 1110 nM
TGI [24]: 8.68 µM and 2.36 µM
GI50 [25]: 5130 nM and 841 nM
TGI [25]: 11.3 µM and 2.62 µM
GI50 [26]: 11 µM and 1.15 µM
GI50 [27]: 633 nM
TGI [27]: 5.17 µM
GI50 [28]: 5070 nM and 686 nM
TGI [29]: 686 nM
GI50 [30]: 5.87 µM and 2.17 µM
TGI [30]: 14.2 µM and 5.76 µM
GI50 [31]: 5.04 µM and 1.42 µM
TGI [31]: 12.3 µM and 3.12 µM
GI50 [32]: 2560 nM and 567 nM
TGI [32]: 6.54 µM and 1.71 µM
GI50 [33]: 11.4 µM and 1.45 µM
TGI [33]: 26.6 µM and 3.09 µM
GI50 [34]: 1190 nM and 437 nM
TGI [34]: 2460 nM and 1500 nM
GI50 [35]: 1740 nM and 399 nM
TGI [35]: 4.44 µM and 1.85 µM
GI50 [36]: 17.5 µM and 1.8 µM
TGI [36]: 31.3 µM and 3.56 µM
TGI [37]: 6.7 µM and 1.47 µM
GI50 [38]: 7.03 µM and 1.16 µM
